Measurements published in patent publication US10065990B2, “Cyclic peptide compound, and preparation method, pharmaceutical composition and use thereof” (HANGZHOU GUANYU BIO-MEDICAL CO., LTD, priority 2013, dated 2018).
Where two headings read alike, the source gives them in different places.

Legend:
HDAC1 = HDAC1 (Homo sapiens, UniProt Q13547); test: HDAC biochemical activity measurement (fluorescent substrate deacetylation);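 also: fluorogenic acetyl-lysine substrate (20 µM) deacetylated by HDAC1, then developer releases fluorophore read at 360 nm excitation and 460 nm emission, inhibitor incubated 30 min at 37 °C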
Sequence of HDAC1 (Q13547 whole entry, species assumed): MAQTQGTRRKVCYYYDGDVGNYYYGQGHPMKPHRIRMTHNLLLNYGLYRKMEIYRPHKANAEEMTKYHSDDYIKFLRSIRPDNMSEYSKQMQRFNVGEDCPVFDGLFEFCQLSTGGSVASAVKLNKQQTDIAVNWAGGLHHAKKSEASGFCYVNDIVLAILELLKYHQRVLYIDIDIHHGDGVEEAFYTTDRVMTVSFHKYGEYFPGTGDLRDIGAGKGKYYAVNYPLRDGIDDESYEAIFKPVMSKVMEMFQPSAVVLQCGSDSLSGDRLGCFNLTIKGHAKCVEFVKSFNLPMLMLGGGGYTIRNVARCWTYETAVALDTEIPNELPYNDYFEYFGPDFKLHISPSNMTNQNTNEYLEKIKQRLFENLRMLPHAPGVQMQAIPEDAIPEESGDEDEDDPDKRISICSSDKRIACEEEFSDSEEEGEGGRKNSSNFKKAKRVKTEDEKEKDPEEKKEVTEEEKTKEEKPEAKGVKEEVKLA

HDAC8 = target: T1, HDAC8 (Homo sapiens, UniProt Q9BY41); test: as above; details: 37° C. 30 minutes
T1 sequence (Q9BY41 1-377): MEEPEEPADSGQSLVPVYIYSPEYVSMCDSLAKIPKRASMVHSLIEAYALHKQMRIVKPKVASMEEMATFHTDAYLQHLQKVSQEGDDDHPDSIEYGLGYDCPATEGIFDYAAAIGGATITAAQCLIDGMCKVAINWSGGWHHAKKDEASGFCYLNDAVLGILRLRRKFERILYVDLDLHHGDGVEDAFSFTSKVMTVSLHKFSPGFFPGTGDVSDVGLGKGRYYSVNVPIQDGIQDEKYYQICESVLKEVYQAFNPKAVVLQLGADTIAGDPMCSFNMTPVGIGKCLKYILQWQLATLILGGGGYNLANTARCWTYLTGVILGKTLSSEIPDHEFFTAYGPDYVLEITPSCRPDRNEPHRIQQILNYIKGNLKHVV

HDAC3 = HDAC3 (Homo sapiens, UniProt O15379); test: as above;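 also: fluorogenic acetyl-lysine substrate (20 µM) deacetylated by HDAC3, then developer added for 15 min at room temperature, release of fluorophore read at excitation 360 nm, emission 460 nm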
Sequence of HDAC3 (O15379 whole entry, species assumed): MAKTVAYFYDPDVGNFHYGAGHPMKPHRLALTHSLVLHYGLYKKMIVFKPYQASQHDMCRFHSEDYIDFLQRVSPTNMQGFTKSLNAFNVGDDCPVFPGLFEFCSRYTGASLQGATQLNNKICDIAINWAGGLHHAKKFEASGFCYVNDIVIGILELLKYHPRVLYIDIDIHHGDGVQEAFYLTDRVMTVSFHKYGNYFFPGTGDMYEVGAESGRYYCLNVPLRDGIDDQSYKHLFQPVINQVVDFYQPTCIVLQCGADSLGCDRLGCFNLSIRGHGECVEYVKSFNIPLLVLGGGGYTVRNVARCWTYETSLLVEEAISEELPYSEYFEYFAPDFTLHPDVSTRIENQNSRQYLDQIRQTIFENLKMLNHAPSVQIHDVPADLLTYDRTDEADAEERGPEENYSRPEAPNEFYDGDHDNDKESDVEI
Sequence of HDAC3 (Q9Y618 395-489 partner limits assumed, species assumed): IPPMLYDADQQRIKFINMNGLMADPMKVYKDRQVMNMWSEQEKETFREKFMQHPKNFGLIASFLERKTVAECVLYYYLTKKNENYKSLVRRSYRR

[1] = system: Bel-7402 (human hepatoma cells); test: MTT cancer cell growth inhibition; format: cell-based; details: Homo sapiens, Bel-7402, 72 h, MTT, 72 hours incubation, Bel-7402 cells; read-out: GI50 Bel-7402
Method in brief: (§1)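 Cells grown in DMEM or RPMI 1640 with 10% FBS were seeded at 1500/well and left overnight at 37° C., 5% CO2. Compounds at final 10^−5 to 10^−10 M were added in triplicate for 72 h. MTT was then added for 4 h, formazan dissolved in DMSO, and absorbance read at 570 nm to derive GI50.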

[2] = system: MOLT-4 (human acute lymphoblastic leukemia cells); test: MTT cancer cell growth inhibition; format: cell-based; details: Homo sapiens, MOLT-4, 72 h, MTT
Method in brief: as §1

[3] = system: DU145 (human prostate cancer cells); test: MTT cancer cell growth inhibition; format: cell-based; details: Homo sapiens, DU-145, 72 h, MTT
Method in brief: as §1

[4] = system: A549 (human lung cancer cells); test: MTT cancer cell growth inhibition; format: cell-based; details: Homo sapiens, A549, 72 h, MTT
Method in brief: as §1

[5] = system: MCF-7 (human breast cancer cells); test: MTT cancer cell growth inhibition; format: cell-based; details: Homo sapiens, MCF7, 72 h
Method in brief: as §1

[6] = system: U937 (human leukemia cells); test: MTT cancer cell growth inhibition; format: cell-based; details: Homo sapiens, U-937, 72 h, MTT
Method in brief: as §1

[7] = system: PANC-1 (Pac-1, human pancreatic cancer cells); test: MTT cancer cell growth inhibition; format: cell-based; details: Homo sapiens, PANC-1, 72 h, MTT
Method in brief: as §1

[8] = system: BGC-823 (human gastric cancer cells); test: MTT cancer cell growth inhibition; format: cell-based; details: Homo sapiens, BGC-823, 72 h, MTT
Method in brief: as §1

[9] = system: lncap (prostate cancer cells); test: MTT cancer cell growth inhibition; format: cell-based; details: Homo sapiens, LNCaP, 72 h, MTT
Method in brief: as §1

[10] = system: Huh-7 (human hepatoma cells); test: MTT cancer cell growth inhibition; format: cell-based; details: Homo sapiens, Huh-7, 72 h, MTT, 72 hours incubation, Huh-7 cells; read-out: GI50 Huh-7
Method in brief: as §1

[11] = HDAC1, 37° C. 30 minutes, read-out: IC50 HDAC1
[12] = MOLT-4 cells, 72 hours incubation, read-out: GI50 Mol
[13] = DU145 cells, 72 hours incubation, read-out: GI50 Du1
[14] = A549 cells, 72 hours incubation, read-out: GI50 A54
[15] = MCF-7 cells, 72 hours incubation, read-out: GI50 MCF
[16] = U937 cells, 72 hours incubation, read-out: GI50 U93
[17] = PANC-1 cells, 72 hours incubation, read-out: GI50 PAN
[18] = BGC-823 cells, 72 hours incubation, read-out: GI50 BG
[19] = lncap cells, 72 hours incubation, read-out: GI50 lnca
[20] = Table 3, read-out: IC50 HDAC1, D (non-substituent)
[21] = read-out: IC50 HDAC3, HDAC3, 37° C. 30 minutes
[22] = 72 hours incubation, read-out: GI50 Mol
[23] = 72 hours incubation, read-out: GI50 A54
[24] = 72 hours incubation, read-out: GI50 MCF
[25] = 72 hours incubation, read-out: GI50 PAN
[26] = Table 2, read-out: IC50 HDAC1, a (compounds of the present invention)
[27] = 72 hours, present invention, read-out: GI50 Molt-4, a
[28] = 72 hours, present invention, read-out: GI50 Du145, a
[29] = 72 hours, present invention, read-out: GI50 A549, a
[30] = 72 hours, present invention, read-out: GI50 MCF7, a
[31] = 72 hours, present invention, read-out: GI50 U937, a
[32] = 72 hours, present invention, read-out: GI50 PANC-1, a
[33] = 72 hours, present invention, read-out: GI50 BGC823, a
[34] = 72 hours, present invention, read-out: GI50 lncap, a

| SMILES | IC50 (HDAC1; [11]) [nM] | IC50 (HDAC8) [nM] | IC50 (HDAC3) [nM] | GI50 [1] [nM] | GI50 [2, 12] [nM] | GI50 [3, 13] [nM] | GI50 [4, 14] [nM] | GI50 [5, 15] [nM] | GI50 [6, 16] [nM] | GI50 [7, 17] [nM] | GI50 [8, 18] [nM] | GI50 [9, 19] [nM] | GI50 [10] [nM] | IC50 (HDAC1; [20]) [nM] | IC50 (HDAC3; [21]) [nM] | GI50 [2, 22] [nM] | GI50 [4, 23] [nM] | GI50 [5, 24] [nM] | GI50 [7, 25] [nM] | IC50 (HDAC1; [26]) [nM] | other results |
| --- | --- | --- | --- | --- | --- | --- | --- | --- | --- | --- | --- | --- | --- | --- | --- | --- | --- | --- | --- | --- | --- |
| C/C=C1\NC(=O)c2nc(ccc2SC)CNC(=O)C[C@@H](/C=C/CCSC(=O)CCCCCCC)OC(=O)[C@H](CC)NC1=O [Compound 171] | 68 | 35 | 18 | 38 | 20 | 10 | 50 | 10 | 20 | 10 | 70 | 50 | 53 |  |  |  |  |  |  |  |  |
| C/C=C1\NC(=O)c2cccc(n2)CNC(=O)C[C@@H](/C=C/CCSC(C)=O)OC(=O)[C@H](CCCCNC(=O)OCC2c3ccccc3-c3ccccc32)NC1=O [Compound 16] | 181 | 61 |  | 91 |  |  |  |  |  |  |  |  | 43 | 181 | 49 | 700 | 4200 | 49500 | 4100 |  | GI50 ([3]; 72 hours incubation, read-out: GI50 Du1): 6100 nM; GI50 ([6]; 72 hours incubation, read-out: GI50 U93): 17900 nM; GI50 ([8]; 72 hours incubation, read-out: GI50 BG): 2100 nM; GI50 ([9]; 72 hours incubation, read-out: GI50 lnca): 82100 nM |
| C/C=C1\NC(=O)c2cc(SC)cc(n2)CNC(=O)C[C@@H](/C=C/CCSC(C)=O)OC(=O)[C@H](CC)NC1=O [Compound 178] | 91 | 36 | 35 | 58 | 50 | 20 | 30 | 30 | 90 | 350 | 60 | 50 | 42 |  |  |  |  |  |  |  |  |
| C/C=C1\NC(=O)c2nc(ccc2SC)CNC(=O)C[C@@H](/C=C/CCS)OC(=O)[C@H](C)NC1=O [Compound 232] | 66 | 59 | 21 | 35 | 50 | 50 | 30 | 80 | 90 | 10 | 50 | 30 | 21 |  |  |  |  |  |  |  |  |
| C/C=C1\NC(=O)c2cccc(n2)CNC(=O)C[C@@H](/C=C/CCSC(=O)CCCCCCC)OC(=O)[C@H](CC)NC1=O [Compound 9] | 45 | 49 |  | 83 |  |  |  |  |  |  |  |  | 53 | 45 | 34 | 10 | 80 | 30 | 60 | < 50 | GI50 [2, 27]: 11 nM; GI50 [3, 28]: 2 nM; GI50 [4, 29]: 80 nM; GI50 [5, 30]: 30 nM; GI50 [6, 31]: 1 nM; GI50 [7, 32]: 60 nM; GI50 [8, 33]: 7 nM; GI50 [9, 34]: 9 nM |
| C/C=C1\NC(=O)c2cccc(n2)CNC(=O)C[C@@H](/C=C/CCSC(=O)CCCCCCC)OC(=O)CNC1=O [Compound 235] | 8 | 47 |  | 91 | 70 | 30 | 30 | 50 | 60 | 230 | 40 | 40 | 38 |  | 35 |  |  |  |  | < 10 | GI50 [2, 27]: 7 nM; GI50 [3, 28]: 3 nM; GI50 [4, 29]: 34 nM; GI50 [5, 30]: 56 nM; GI50 [6, 31]: 6 nM; GI50 [7, 32]: 230 nM; GI50 [8, 33]: 43 nM; GI50 [9, 34]: 40 nM |
